Measurements as given in PubChem BioAssay AID1919017 (Molecular Pharmacology Branch, DTP, NCI, 2023).

Test system: SW1271 complex spheroids with HUVEC/MSC, growth, % test/control
Test: Anticancer human tumor SW1271 cell line growth inhibition [AhR];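 also: spheroids exposed to agents for 7 days before readout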
Conditions: for IC50: curve of first compound; for viability, T/C: stronger effect = lower value; active = viability on the fitted dose curve at most 10% of control; inactive = the rest
Source text: Multicellular complex tumor spheroid response to aryl hydrocarbon receptor antagonists in combination with a variety of drugs and investigational agents in selected tumor cell lines
The current study was undertaken to assess response to aryl hydrocarbon receptor antagonists in combination with standard-of-care drugs and investigational agents in solid tumor complex spheroid models. Complex spheroids include a stromal component modeled by human endothelial cells (HUVEC) and fibroblasts modeled by human mesenchymal stem cells (MSCs). The concentration ranges selected for each drug and investigational agent were based upon clinically achievable concentrations if the clinical Cmax of the agent was known.
Compounds. The drugs and investigational agents: BAY 2416964 (NSC825713), GNF351 (NSC835774), CH-223191 (NSC835775), CPI-455 (NSC825282), aza-TdCyd (NSC777586), decitabine (NSC127716), belinostat (NSC758774), entinostat (NSC756642), pevonedistat (NSC761192), tazemetostat (NSC777109), talazoparib (NSC765396), olaparib (NSC753686), selinexor (NSC780203), nedisertib (M3814, NSC802822), bortezomib (NSC756655), venetoclax (NSC766270), doxorubicin (NSC123127), elimusertib (BAY189344, NSC800525), ceralasertib (AZD6738, NSC777638), TAK-243 (NSC785004), alisertib (NSC759677), etoposide (NSC141540), topotecan (NSC609699), eribulin (NSC707389), gemcitabine (NSC613327), carboplatin (NSC241240), cisplatin (NSC119875), and SN-38 (NSC673596) were obtained from the National Cancer Institute (NCI) Developmental Therapeutics Program Chemical Repository (32). The FDA-approved anticancer drug set is available from the Developmental Therapeutics Program at https://dtp.cancer.gov/organization/dscb/obtaining/available plates.htm. […] The stock solutions were prepared in dimethyl sulfoxide (DMSO, Sigma-Aldrich, St. Louis, MO, cat. D2650), except for the platinum compounds which were prepared in saline (Quality Biological, Gaithersburg, MD, cat. 114-055-101), at 800-fold the tested concentration and stored at -70 degrees C prior to their use. All drugs and investigational agents were tested over a range starting from a high concentration at or near the clinical Cmax and decreasing in half-log increments. If the clinical Cmax for an agent had not been determined, the highest concentration tested was 10 microM (Table 1).
Cell Culture. All cells were maintained in an incubator at 37 degrees C and 5% CO2 with 95% humidity. The PDC lines were cultured according to standard operating procedures established by the NCI PDMR (https://pdmr.cancer.gov). Briefly, all PDCs were thawed and cultured in Matrigel-coated flasks prepared with a working solution of 1X Ham's F-12 nutrient mix, without supplementation (Invitrogen, Waltham, MA, cat. 11765054), 100 U/mL penicillin-streptomycin (Invitrogen, cat. 15140122), and 2.5% Matrigel (Corning Inc., Corning, NY, cat. 354248) for the first three passages. All PDCs were cultured in complete DMEM/F-12 media containing advanced DMEM/F-12 (Invitrogen, cat. 12634028), 4.9% defined fetal bovine serum, heat inactivated (HyClone Laboratories Inc., Logan, UT, cat. SH30070.03HI), 389 ng/mL hydrocortisone (Sigma-Aldrich, cat. H4001), 9.7 ng/mL human EGF recombinant protein (Invitrogen, cat. PHG0313), 23.4 microg/mL adenine (Sigma-Aldrich, cat. A2786), 97.3 U/mL penicillin-streptomycin (Invitrogen, cat. 15140122), 1.9 mM L-glutamine (Invitrogen, cat. 25030081), and 9.7 microM Y-27632 dihydrochloride (Tocris Bioscience, Bristol, United Kingdom, cat. 1254). The PDCs were cultured in complete DMEM/F12 media without 10 microM Y-27632 dihydrochloride for at least two passages prior to the screen. The established cell lines NCI-H1341 and […] were cultured in DMEM/F-12, HEPES (Invitrogen, cat. 11330032), 5% defined fetal bovine serum (HyClone Laboratories Inc., cat. SH30070.03), ITS premix universal culture supplement [insulin (5 microg/mL), transferrin (5 microg/mL), and selenious acid (5 ng/mL)] […]

[1] = second compound 0.1 µM, first compound 0.0316 µM
[2] = second compound 0.1 µM, first compound 0.1 µM
[3] = second compound 0.1 µM, first compound 0.316 µM
[4] = second compound 0.1 µM, first compound 1 µM
[5] = second compound 0.1 µM, first compound 3.16 µM
[6] = second compound 0.1 µM, first compound 10 µM
[7] = second compound 0.316 µM, first compound 0.0316 µM
[8] = second compound 0.316 µM, first compound 0.1 µM
[9] = second compound 0.316 µM, first compound 0.316 µM
[10] = second compound 0.316 µM, first compound 1 µM
[11] = second compound 0.316 µM, first compound 3.16 µM
[12] = second compound 0.316 µM, first compound 10 µM
[13] = second compound 1 µM, first compound 0.0316 µM
[14] = second compound 1 µM, first compound 0.1 µM
[15] = second compound 1 µM, first compound 0.316 µM
[16] = second compound 1 µM, first compound 1 µM
[17] = second compound 1 µM, first compound 3.16 µM
[18] = second compound 1 µM, first compound 10 µM
[19] = second compound 3.16 µM, first compound 0.0316 µM
[20] = second compound 3.16 µM, first compound 0.1 µM
[21] = second compound 3.16 µM, first compound 0.316 µM
[22] = second compound 3.16 µM, first compound 1 µM
[23] = second compound 3.16 µM, first compound 3.16 µM
[24] = second compound 3.16 µM, first compound 10 µM
[25] = second compound 10 µM, first compound 0.0316 µM
[26] = second compound 10 µM, first compound 0.1 µM
[27] = second compound 10 µM, first compound 0.316 µM
[28] = second compound 10 µM, first compound 1 µM
[29] = second compound 10 µM, first compound 3.16 µM
[30] = second compound 10 µM, first compound 10 µM

CC(C)CC(NC(=O)C(Cc1ccccc1)NC(=O)c1cnccn1)B(O)O (stereo not given) + CC(CO)NC(=O)c1cc(-c2ccc(Cl)cc2)nn(-c2cnn(C)c2)c1=O
4.95 nM: IC50 (second compound 0.1 µM)
5.08 nM: IC50 (second compound 0.316 µM)
active: viability, T/C (second compound 0.1 µM, first compound 0.00949 µM) 2.31% | viability, T/C (second compound 0.1 µM, first compound 0.03 µM) 0.27% | viability, T/C (second compound 0.1 µM, first compound 0.0949 µM) 0.34% | viability, T/C (second compound 0.1 µM, first compound 0.3 µM) 0.41% | viability, T/C (second compound 0.316 µM, first compound 0.00949 µM) 4.62% | viability, T/C (second compound 0.316 µM, first compound 0.03 µM) 0.41% | viability, T/C (second compound 0.316 µM, first compound 0.0949 µM) 0.43% | viability, T/C (second compound 0.316 µM, first compound 0.3 µM) 0.4% | viability, T/C (second compound 1 µM, first compound 0.00949 µM) 2.34% | viability, T/C (second compound 1 µM, first compound 0.03 µM) 0.34% | viability, T/C (second compound 1 µM, first compound 0.0949 µM) 0.31% | viability, T/C (second compound 1 µM, first compound 0.3 µM) 0.55% | viability, T/C (second compound 3.16 µM, first compound 0.00949 µM) 3.1% | viability, T/C (second compound 3.16 µM, first compound 0.03 µM) 0.44% | viability, T/C (second compound 3.16 µM, first compound 0.0949 µM) 0.3% | viability, T/C (second compound 3.16 µM, first compound 0.3 µM) 0.38% | viability, T/C (second compound 10 µM, first compound 0.00949 µM) 1.45% | viability, T/C (second compound 10 µM, first compound 0.03 µM) 0.5% | viability, T/C (second compound 10 µM, first compound 0.0949 µM) 0.51% | viability, T/C (second compound 10 µM, first compound 0.3 µM) 0.39%
4.41 nM: IC50 (second compound 10 µM)
5.33 nM: IC50 (second compound 1 µM)
4.77 nM: IC50 (second compound 3.16 µM)
inactive: viability, T/C (second compound 0.1 µM, first compound 0.000949 µM) 116% | viability, T/C (second compound 0.1 µM, first compound 0.003 µM) 86.6% | viability, T/C (second compound 0.316 µM, first compound 0.000949 µM) 92.5% | viability, T/C (second compound 0.316 µM, first compound 0.003 µM) 88.3% | viability, T/C (second compound 1 µM, first compound 0.000949 µM) 99.9% | viability, T/C (second compound 1 µM, first compound 0.003 µM) 97.5% | viability, T/C (second compound 3.16 µM, first compound 0.000949 µM) 66.9% | viability, T/C (second compound 3.16 µM, first compound 0.003 µM) 96.6% | viability, T/C (second compound 10 µM, first compound 0.000949 µM) 73.6% | viability, T/C (second compound 10 µM, first compound 0.003 µM) 75.2%

Nc1ccccc1NC(=O)c1ccc(CNC(=O)OCc2cccnc2)cc1 + CC(CO)NC(=O)c1cc(-c2ccc(Cl)cc2)nn(-c2cnn(C)c2)c1=O
inactive: viability, T/C [1] 92.2% | viability, T/C [2] 89.6% | viability, T/C [3] 78.5% | viability, T/C [4] 43% | viability, T/C [5] 34.8% | viability, T/C [6] 10.7% | viability, T/C [7] 103% | viability, T/C [8] 85.2% | viability, T/C [9] 67.3% | viability, T/C [10] 41.4% | viability, T/C [11] 35% | viability, T/C [12] 9.29% | viability, T/C [13] 87.7% | viability, T/C [14] 82% | viability, T/C [15] 60.4% | viability, T/C [16] 40.8% | viability, T/C [17] 30.2% | viability, T/C [18] 10.4% | viability, T/C [19] 65.2% | viability, T/C [20] 64.7% | viability, T/C [21] 65.5% | viability, T/C [22] 44.9% | viability, T/C [23] 34.5% | viability, T/C [24] 11% | viability, T/C [25] 70.2% | viability, T/C [26] 63% | viability, T/C [27] 43.5% | viability, T/C [28] 43.6% | viability, T/C [29] 19% | viability, T/C [30] 11.4%
1000 nM: IC50 (second compound 3.16 µM)
838 nM: IC50 (second compound 0.316 µM)
1040 nM: IC50 (second compound 0.1 µM)
676 nM: IC50 (second compound 1 µM)
294 nM: IC50 (second compound 10 µM)

O=C(C=Cc1cccc(S(=O)(=O)Nc2ccccc2)c1)NO + CC(CO)NC(=O)c1cc(-c2ccc(Cl)cc2)nn(-c2cnn(C)c2)c1=O
768 nM: IC50 (second compound 0.316 µM)
1200 nM: IC50 (second compound 0.1 µM)
inactive: viability, T/C [1] 98.4% | viability, T/C [2] 92.5% | viability, T/C [3] 75.4% | viability, T/C [4] 57.9% | viability, T/C [5] 24.7% | viability, T/C [7] 92.4% | viability, T/C [8] 87.6% | viability, T/C [9] 71.1% | viability, T/C [10] 45.5% | viability, T/C [11] 16.6% | viability, T/C [12] 11.7% | viability, T/C [13] 85.9% | viability, T/C [14] 80.8% | viability, T/C [15] 75.5% | viability, T/C [16] 63% | viability, T/C [17] 28.4% | viability, T/C [19] 85% | viability, T/C [20] 73.1% | viability, T/C [21] 65.2% | viability, T/C [22] 51.4% | viability, T/C [23] 27% | viability, T/C [25] 90.2% | viability, T/C [26] 76.2% | viability, T/C [27] 54.4% | viability, T/C [28] 57.1% | viability, T/C [29] 26.7% | viability, T/C [30] 9.34%
active: viability, T/C [6] 9.02% | viability, T/C [18] 9.03% | viability, T/C [24] 10.7%
793 nM: IC50 (second compound 10 µM)
1500 nM: IC50 (second compound 1 µM)
914 nM: IC50 (second compound 3.16 µM)
